Where only a bound is given, the exact number is not on record here.

The target of the assay is T1, HCV NS5B polymerase (Hepatitis C virus genotype 1b, UniProt P26663).
T1 construct: RNA-dependent RNA polymerase (NS5B) of the hepatitis C virus (HCV)
T1 sequence (P26663 2420-2955): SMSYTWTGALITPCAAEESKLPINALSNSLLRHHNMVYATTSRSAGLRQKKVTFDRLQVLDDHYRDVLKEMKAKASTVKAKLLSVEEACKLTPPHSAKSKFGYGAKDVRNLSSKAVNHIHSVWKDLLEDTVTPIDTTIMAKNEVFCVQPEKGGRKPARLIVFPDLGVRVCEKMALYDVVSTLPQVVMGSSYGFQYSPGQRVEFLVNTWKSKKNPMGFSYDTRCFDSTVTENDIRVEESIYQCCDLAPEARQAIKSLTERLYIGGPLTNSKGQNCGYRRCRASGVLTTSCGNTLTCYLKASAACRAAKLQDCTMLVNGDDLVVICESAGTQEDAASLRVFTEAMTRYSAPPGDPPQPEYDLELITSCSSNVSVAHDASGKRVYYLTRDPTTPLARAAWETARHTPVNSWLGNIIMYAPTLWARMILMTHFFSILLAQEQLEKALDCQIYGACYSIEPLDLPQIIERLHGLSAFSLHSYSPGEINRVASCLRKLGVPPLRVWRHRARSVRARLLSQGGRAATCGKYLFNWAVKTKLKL
The assay can be described thus: Assay for inhibition of HCV NS5B polymerase (RdRp, 3H-UTP incorporation on heteromeric RNA template). The class given is biochemical. The note with it: heterogeneous template dCoh, 2 nM DC55-lb.BK or 10 nM DC55-2b.2, NTPs 1 uM, room temperature 2 hours. The method, then: The effectiveness of the compounds of the present invention as inhibitors of HCV NS5B RNA-dependent RNA polymerase (RdRp) was measured in the following assay.
This assay was used to measure the ability of the nucleoside derivatives of the present invention to inhibit the enzymatic activity of the RNA-dependent RNA polymerase (NS5B) of the hepatitis C virus (HCV) on a heteromeric RNA template.
Assay Buffer Conditions: (52.5 μL-total/reaction)
20 nM heterogeneous template dCoh
2.5 μl/reaction inhibitor compound in H2O
The compounds were tested at various concentrations up to 100 μM final concentration. Nucleoside derivatives were pipetted into wells of a 96-well plate. The enzyme diluted in the reaction buffer was pipetted into the wells and incubated at room temperature for 10 minutes; then the template dCoh was added and incubated for 10 minutes at room temperature. The reaction was initiated by addition of a mixture of nucleotide triphosphates (NTP's), including the radiolabeled UTP, and allowed to proceed at room temperature for 2 hours. Blank samples were done omitting the dCoh template. The reaction was quenched by addition of 50 ul TCA 20% (trichloroacetic acid)/NaPPi 20 mM and the plates were put in ice for 5 minutes. Then, the mixtures were filtered onto Unifilter GF/B 96-well plates (PerkinElmer), washed with TCA 2.5%. 50 ul/well of scintillator solution (Microscint 20, PerkinElmer) were added and the plates were counted in a scintillator counter.
The percentage of inhibition was calculated according to the following equation:
% Inhibition=[1−(cpm in test reaction−cpm in blank)/(cpm in control reaction−cpm in blank)]×100.
As to `C[C@@]1(O)[C@H](O)[C@@H](COP(=O)(O)OP(=O)(O)OP(=O)(O)O)O[C@H]1n1cc(-c2cn[nH]c2)c2c(N)ncnc21` [Compound 15, 7-(2-C-methyl-5-triphospho-β-D-ribofuranosyl)-5-(1H-pyrazol-4-yl)-7H-pyrrolo[2,3-d]pyrimidin-4-amine], the half-maximal inhibitory concentration (IC50) was less than 50 µM.

On to `C[C@@]1(O)[C@H](O)[C@@H](COP(=O)(O)OP(=O)(O)OP(=O)(O)O)O[C@H]1n1cc(-c2ncon2)c2c(N)ncnc21` [Compound 16, 7-(2-C-methyl-5-triphospho-β-D-ribofuranosyl)-5-(1,2,4-oxadiazol-3-yl)-7H-pyrrolo[2,3-d]pyrimidin-4-amine], for which the half-inhibitory concentration (IC50) is less than 1 µM.

The molecule `Cn1cc(-c2cn([C@@H]3O[C@H](COP(=O)(O)OP(=O)(O)OP(=O)(O)O)[C@@H](O)[C@@]3(C)O)c3ncnc(N)c23)nn1` [Compound 17, 7-(2-C-methyl-5-triphospho-β-D-ribofuranosyl)-5-(1-methyl-1H-1,2,3-triazol-4-yl)-7H-pyrrolo[2,3-d]pyrimidin-4-amine] showed a 50% inhibitory concentration (IC50) of less than 50 µM.

In the case of `C[C@@]1(F)[C@H](O)[C@@H](COP(=O)(O)OP(=O)(O)OP(=O)(O)O)O[C@H]1n1cc(-c2ncon2)c2c(N)ncnc21` [Compound 18, 7-(2-deoxy-2-fluoro-2-methyl-5-triphospho-β-D-ribofuranosyl)-5-(1,2,4-oxadiazol-3-yl)-7H-pyrrolo[2,3-d]pyrimidin-4-amine], the 50% inhibitory concentration (IC50) was less than 1 µM.

In turn, `C[C@@]1(F)[C@H](O)[C@@H](COP(=O)(O)OP(=O)(O)OP(=O)(O)O)O[C@H]1n1cc(-c2ncco2)c2c(N)ncnc21` [Compound 19, 7-(2-deoxy-2-fluoro-2-methyl-5-triphospho-β-D-ribofuranosyl)-5-(1,3-oxazol-2-yl)-7H-pyrrolo[2,3-d]pyrimidin-4-amine] showed an IC50 of less than 1 µM.

`C[C@@]1(F)[C@H](O)[C@@H](COP(=O)(O)OP(=O)(O)OP(=O)(O)O)O[C@H]1n1cc(-c2ccn[nH]2)c2c(N)ncnc21` [Compound 20, 7-(2-deoxy-2-fluoro-2-methyl-5-triphospho-β-D-ribofuranosyl)-5-(1H-pyrazol-5-yl)-7H-pyrrolo[2,3-d]pyrimidin-4-amine]: the IC50 was less than 1 µM.

Turning to `C[C@@]1(O)[C@H](O)[C@@H](COP(=O)(O)OP(=O)(O)OP(=O)(O)O)O[C@H]1n1nc(-c2cc[nH]n2)c2c(N)ncnc21` [Compound 26, 1-[5-O-(hydroxy{[hydroxy(phosphonooxy)phosphoryl]oxy}phosphoryl)-2-C-methyl-b-D-ribofuranosyl]-3-(1H-pyrazol-3-yl)-1H-pyrazolo[3,4-d]pyrimidin-4-amine], the 50% inhibitory concentration (IC50) is less than 50 µM.

The molecule `C[C@@]1(O)[C@H](O)[C@@H](COP(=O)(O)OP(=O)(O)OP(=O)(O)O)O[C@H]1n1cc(-c2nnco2)c2c(N)ncnc21` [Compound 28, 7-(2-C-methyl-5-triphospho-β-D-ribofuranosyl)-5-(1,3,4-oxadiazol-2-yl)-7H-pyrrolo[2,3-d]pyrimidin-4-amine] registered an IC50 of less than 50 µM.

By IC50 is commonly meant the point on the concentration scale where inhibition reaches its midpoint. High values mean weaker potency, low ones greater potency.

(Values after patent publication US20110306573A1, “NUCLEOSIDE DERIVATIVES AS INHIBITORS OF VIRAL POLYMERASES” (priority 2008, published 2011).)
